Data on 12 sequences can be found in patent US20060263802A1 (priority 2003, published 2006).

Common to all, as to format: binding
Assay [1] concerns human monoclonal antibody CRJA.
For assay [2], the system named is human monoclonal antibody CRJA. This is another data set of the same source.
Assay [3] relates to human monoclonal antibody CRJB.
Assay [4] has as its system human monoclonal antibody CR57.
The subject of assay [5] is human monoclonal antibody CR57. The source holds these as a separate data set.
Assay [6] relates to human monoclonal antibody CRJB. The source holds these as a separate data set.

As for GMSCDIFTNSRGKRA, in assay [1], the “Binding of CRJA to linear peptide (PEPSCAN-ELISA signal)” value (“Binding of CRJA to linear peptide” below) is given as 71. Further, the “Binding of CRJA (10 μg/ml) to looped/cyclic peptide (PEPSCAN-ELISA signal)” value in assay [2] came out at 51. Also, the “Binding of CRJB (10 μg/ml) to looped/cyclic peptide (PEPSCAN-ELISA signal)” value in assay [3] was determined as 78. Moreover, in assay [4], the “Binding of CR57 to linear peptide (PEPSCAN-ELISA signal)” value (shortened to “Binding of CR57 to linear peptide”) was 54. In addition, in assay [5], the “Binding of CR57 (10 μg/ml) to looped/cyclic peptide (PEPSCAN-ELISA signal)” value was found to be 79. In assay [6], the “Binding of CRJB to linear peptide (PEPSCAN-ELISA signal)” value (“Binding of CRJB to linear peptide” for short) worked out at 120.

Turning to GIILGPDGNVLIPEM, the “Binding of CRJA to linear peptide” value in assay [1] is on record as 107. In assay [2], the “Binding of CRJA (10 μg/ml) to looped/cyclic peptide (PEPSCAN-ELISA)” value was 92. Further, the “Binding of CRJB (10 μg/ml) to looped/cyclic peptide (PEPSCAN-ELISA)” value in assay [3] is 93. Besides, the “Binding of CR57 to linear peptide” value in assay [4] was 107. Moreover, the “Binding of CR57 (10 μg/ml) to looped/cyclic peptide (PEPSCAN-ELISA)” value in assay [5] turned out to be 108. Besides, the “Binding of CRJB to linear peptide” value in assay [6] came out at 132.

Turning to NGFTCTGVVTEAENY, the “Binding of CRJA to linear peptide” value in assay [1] turned out to be 98. The “Binding of CRJA (10 μg/ml) to looped/cyclic peptide (PEPSCAN-ELISA signal)” value in assay [2] is 82. Also, in assay [3], the “Binding of CRJB (10 μg/ml) to looped/cyclic peptide (PEPSCAN-ELISA signal)” value came to 76. The “Binding of CR57 to linear peptide” value in assay [4] is on record as 69. Also, the “Binding of CR57 (10 μg/ml) to looped/cyclic peptide (PEPSCAN-ELISA signal)” value in assay [5] is listed as 92. The “Binding of CRJB to linear peptide” value in assay [6] is given as 101.

For LHDFRSDEIEHLVVE, the “Binding of CRJA to linear peptide” value in assay [1] is 110. The “Binding of CRJA (10 μg/ml) to looped/cyclic peptide (PEPSCAN-ELISA)” value in assay [2] was found to be 90. Besides, in assay [3], the “Binding of CRJB (10 μg/ml) to looped/cyclic peptide (PEPSCAN-ELISA)” value was found to be 65. Besides, the “Binding of CR57 to linear peptide” value in assay [4] is given as 93. Besides, the “Binding of CR57 (10 μg/ml) to looped/cyclic peptide (PEPSCAN-ELISA)” value in assay [5] turned out to be 40. The “Binding of CRJB to linear peptide” value in assay [6] is 115.

On to MSCDIFTNSRGKRAS, for which the “Binding of CRJA to linear peptide” value in assay [1] was 71. In addition, the “Binding of CRJA (10 μg/ml) to looped/cyclic peptide (PEPSCAN-ELISA signal)” value in assay [2] is 49. Besides, the “Binding of CRJB (10 μg/ml) to looped/cyclic peptide (PEPSCAN-ELISA signal)” value in assay [3] was 73. In assay [4], the “Binding of CR57 to linear peptide” value stood at 46. Also, the “Binding of CR57 (10 μg/ml) to looped/cyclic peptide (PEPSCAN-ELISA signal)” value in assay [5] was 71. The “Binding of CRJB to linear peptide” value in assay [6] is listed as 110.

For the sequence AYTIFNKTLMEADAH, the “Binding of CRJA to linear peptide” value in assay [1] is recorded as 98. Also, in assay [2], the “Binding of CRJA (10 μg/ml) to looped/cyclic peptide (PEPSCAN-ELISA)” value was determined as 97. Further, the “Binding of CRJB (10 μg/ml) to looped/cyclic peptide (PEPSCAN-ELISA)” value in assay [3] was 78. The “Binding of CR57 to linear peptide” value in assay [4] came to 86. Further, the “Binding of CR57 (10 μg/ml) to looped/cyclic peptide (PEPSCAN-ELISA)” value in assay [5] came to 118. The “Binding of CRJB to linear peptide” value in assay [6] is on record as 121.

With LSCPNNLVVEDEGCT, the “Binding of CRJA to linear peptide” value in assay [1] came to 90. Further, the “Binding of CRJA (10 μg/ml) to looped/cyclic peptide (PEPSCAN-ELISA signal)” value in assay [2] is given as 97. Besides, the “Binding of CRJB (10 μg/ml) to looped/cyclic peptide (PEPSCAN-ELISA signal)” value in assay [3] was 74. In addition, in assay [4], the “Binding of CR57 to linear peptide” value was determined as 69. Further, the “Binding of CR57 (10 μg/ml) to looped/cyclic peptide (PEPSCAN-ELISA signal)” value in assay [5] was determined as 72. Moreover, the “Binding of CRJB to linear peptide” value in assay [6] stood at 117.

As to DIFTNSRGKRASKGS, the “Binding of CRJA to linear peptide” value in assay [1] came out at 114. For the same sequence, the “Binding of CRJA (10 μg/ml) to looped/cyclic peptide (PEPSCAN-ELISA signal)” value in assay [2] came out at 99. Besides, the “Binding of CRJB (10 μg/ml) to looped/cyclic peptide (PEPSCAN-ELISA signal)” value in assay [3] came to 82. Moreover, the “Binding of CR57 to linear peptide” value in assay [4] is recorded as 70. The “Binding of CR57 (10 μg/ml) to looped/cyclic peptide (PEPSCAN-ELISA signal)” value in assay [5] is given as 80. Moreover, the “Binding of CRJB to linear peptide” value in assay [6] is 107.

VIISPSVADLDPYDR: the “Binding of CRJA to linear peptide” value in assay [1] came out at 47. Further, the “Binding of CRJA (10 μg/ml) to looped/cyclic peptide (PEPSCAN-ELISA signal)” value in assay [2] is 100. Also, the “Binding of CRJB (10 μg/ml) to looped/cyclic peptide (PEPSCAN-ELISA signal)” value in assay [3] came out at 82. Moreover, in assay [4], the “Binding of CR57 to linear peptide” value is listed as 59. Moreover, the “Binding of CR57 (10 μg/ml) to looped/cyclic peptide (PEPSCAN-ELISA signal)” value in assay [5] is 90. Moreover, the “Binding of CRJB to linear peptide” value in assay [6] came out at 98.

Regarding CGVLGLRLMDGTWVA, the “Binding of CRJA to linear peptide” value in assay [1] is listed as 96. The “Binding of CRJA (10 μg/ml) to looped/cyclic peptide (PEPSCAN-ELISA)” value in assay [2] came out at 101. In addition, in assay [3], the “Binding of CRJB (10 μg/ml) to looped/cyclic peptide (PEPSCAN-ELISA)” value amounted to 91. Moreover, in assay [4], the “Binding of CR57 to linear peptide” value is listed as 99. In addition, in assay [5], the “Binding of CR57 (10 μg/ml) to looped/cyclic peptide (PEPSCAN-ELISA)” value is recorded as 110. Moreover, the “Binding of CRJB to linear peptide” value in assay [6] turned out to be 117.

On to SSVIPLVHPLADPST, for which, in assay [1], the “Binding of CRJA to linear peptide” value was 60. Besides, the “Binding of CRJA (10 μg/ml) to looped/cyclic peptide (PEPSCAN-ELISA)” value in assay [2] was determined as 45. In assay [3], the “Binding of CRJB (10 μg/ml) to looped/cyclic peptide (PEPSCAN-ELISA)” value amounted to 80. Besides, the “Binding of CR57 to linear peptide” value in assay [4] was 73. The “Binding of CR57 (10 μg/ml) to looped/cyclic peptide (PEPSCAN-ELISA)” value in assay [5] is recorded as 120. In assay [6], the “Binding of CRJB to linear peptide” value came out at 104.

For the sequence EIEHLVVEELVRKRE, the “Binding of CRJA to linear peptide” value in assay [1] is reported as 86. Moreover, in assay [2], the “Binding of CRJA (10 μg/ml) to looped/cyclic peptide (PEPSCAN-ELISA)” value is 93. For the same sequence, the “Binding of CRJB (10 μg/ml) to looped/cyclic peptide (PEPSCAN-ELISA)” value in assay [3] is reported as 89. Further, the “Binding of CR57 to linear peptide” value in assay [4] came out at 82. Also, in assay [5], the “Binding of CR57 (10 μg/ml) to looped/cyclic peptide (PEPSCAN-ELISA)” value was determined as 107. For the same sequence, the “Binding of CRJB to linear peptide” value in assay [6] amounted to 113.
